According to patent US8158628B2, “Sulfonylated 1,2,3,4-tetrahydropyrrolo[1,2-a]pyrazine compounds and their use as pharmaceuticals” (Gruenenthal GmbH, priority 2009, dated 2012):

Legend:
B1R of the rat = target: T1, B1R of the rat (Rattus norvegicus, UniProt P97583); assay: FLIPR Ca2+ functional assay, B1R antagonism, rat B1R in CHO K1 cells; type: cell-based; settings: test substance 10 μM; rB1R CHO K1 cells; agonist Des-Arg9 bradykinin at EC80; % of maximum achievable inhibition
T1 construct: expressed in transfected cells; host or cells: CHO K1 cells (Chinese hamster ovary), stably transfected
T1 sequence (P97583 1-337): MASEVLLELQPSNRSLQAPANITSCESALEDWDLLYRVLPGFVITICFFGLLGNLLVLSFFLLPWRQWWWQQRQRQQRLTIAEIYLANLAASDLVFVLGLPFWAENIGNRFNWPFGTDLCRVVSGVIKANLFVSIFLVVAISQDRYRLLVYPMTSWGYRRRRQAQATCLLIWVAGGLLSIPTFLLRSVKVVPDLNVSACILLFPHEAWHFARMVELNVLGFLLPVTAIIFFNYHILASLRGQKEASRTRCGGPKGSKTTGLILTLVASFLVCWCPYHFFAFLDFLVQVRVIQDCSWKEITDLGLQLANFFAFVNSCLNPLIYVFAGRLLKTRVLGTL
Method in brief: (§1)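 IC50 values come from varied compound concentrations applied 10-20 min before an EC80 agonist challenge, with Des-Arg9 bradykinin for rat and Lys-Des-Arg9 bradykinin for human receptor. Ca2+ influx in Fluo-4-loaded CHO K1 transfectants was measured by FLIPR peak fluorescence. Data are % inhibition vs maximum, n=2-3, N>=2.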

human B1R = target: T2, human B1R (Homo sapiens, UniProt P46663); assay: FLIPR Ca2+ functional assay, B1R antagonism, human B1R in CHO K1 cells; type: cell-based; settings: test substance 10 μM; hB1R CHO K1 cells; agonist Lys-Des-Arg9 bradykinin at EC80; % of maximum achievable inhibition
T2 construct: expressed in transfected cells; host or cells: CHO K1 cells (Chinese hamster ovary), stably transfected
T2 sequence (P46663 1-353): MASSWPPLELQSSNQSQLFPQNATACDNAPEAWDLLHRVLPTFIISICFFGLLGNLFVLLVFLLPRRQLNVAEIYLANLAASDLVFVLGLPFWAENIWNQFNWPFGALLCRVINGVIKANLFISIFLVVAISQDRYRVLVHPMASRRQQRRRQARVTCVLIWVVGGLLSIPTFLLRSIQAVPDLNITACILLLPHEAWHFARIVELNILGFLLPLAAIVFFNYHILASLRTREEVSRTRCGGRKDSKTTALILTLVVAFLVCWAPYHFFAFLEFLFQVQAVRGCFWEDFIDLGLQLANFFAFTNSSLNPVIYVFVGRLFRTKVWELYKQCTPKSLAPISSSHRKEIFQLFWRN
Method in brief: as §1

SMILES	inhibition at 10 µM (B1R of the rat) [%]	inhibition at 10 µM (human B1R) [%]
COc1cc(C)c(S(=O)(=O)N2CCn3cccc3C2COCC(=O)N2CCC3(CC2)CCN(c2ccncc2)CC3)c(C)c1 (stereo not shown) [Example 10, 2-((2-(4-Methoxy-2,6-dimethylphenylsulfonyl)-1,2,3,4-tetrahydropyrrolo[1,2-a]pyrazin-1-yl)methoxy)-1-(9-(pyridin-4-yl)-3,9-diazaspiro[5.5]undecan-3-yl)ethanone]	103	99.8
COc1cc(C)c(S(=O)(=O)N2CCn3cccc3C2COCC(=O)N2CCC3(CC2)CCN(c2ccncc2)C3)c(C)c1 (stereo not shown) [Example 4, 2-((2-(4-Methoxy-2,6-dimethylphenylsulfonyl)-1,2,3,4-tetrahydropyrrolo[1,2-a]pyrazin-1-yl)methoxy)-1-(2-(pyridin-4-yl)-2,8-diazaspiro[4.5]decan-8-yl)ethanone]	104	99.8
COc1ccc2cc(S(=O)(=O)N3CCn4cccc4C3CC(=O)NCCc3ccc(C4=NCCN4)cc3)ccc2c1 (stereo not shown) [Example 41, N-[2-[4-(4,5-Dihydro-1H-imidazol-2-yl)-phenyl]-ethyl]-2-[2-[(6-methoxy-naphthalen-2-yl)sulfonyl]-1,2,3,4-tetrahydro-pyrrolo[1,2-a]pyrazin-1-yl]-acetamide]	103	100
O=C(COCC1c2cccn2CCN1S(=O)(=O)c1ccccc1C(F)(F)F)N1CCC2(CC1)CCN(c1ccncc1)CC2 (stereo not shown) [Example 11, 1-(9-(Pyridin-4-yl)-3,9-diazaspiro[5.5]undecan-3-yl)-2-((2-(2-(trifluoromethyl)phenylsulfonyl)-1,2,3,4-tetrahydropyrrolo[1,2-a]pyrazin-1-yl)methoxy)ethanone]	98.1	99.9
O=C(CC1c2cccn2CCN1S(=O)(=O)c1cccc(C(F)(F)F)c1)NC1CCc2cc(CN3C4CCCC3CC4)ccc2C1 (stereo not shown) [Example 88, N-[6-(8-Azabicyclo[3.2.1]octan-8-yl-methyl)-1,2,3,4-tetrahydro-naphthalen-2-yl]-2-[2-[[3-(trifluoromethyl)phenyl]sulfonyl]-1,2,3,4-tetrahydro-pyrrolo[1,2-a]pyrazin-1-yl]-acetamide]	96.5	99.9
Cc1ccc(S(=O)(=O)N2CCn3cccc3C2CC(=O)N[C@H](C)c2ccc(CNC(C)(C)C)cc2)cc1 (stereo partly drawn) [Example 46, N-[(1R)-1-[4-[(tert-Butylamino)-methyl]-phenyl]-ethyl]-2-[2-(p-tolylsulfonyl)-1,2,3,4-tetrahydro-pyrrolo[1,2-a]pyrazin-1-yl]-acetamide]	29	55.8
COc1ccc2cc(S(=O)(=O)N3CCn4cccc4C3CC(=O)NC3CCCc4cc(CN5C6CCCC5CC6)ccc43)ccc2c1 (stereo not shown) [Example 95, N-[6-(8-Azabicyclo[3.2.1]octan-8-yl-methyl)-1,2,3,4-tetrahydro-naphthalen-1-yl]-2-[2-[(6-methoxy-naphthalen-2-yl)sulfonyl]-1,2,3,4-tetrahydro-pyrrolo[1,2-a]pyrazin-1-yl]-acetamide]	99.8	99.7
Cc1cccc(Cl)c1S(=O)(=O)N1CCn2cccc2C1COCC(=O)N1CCC(Oc2ccncc2)CC1 (stereo not shown) [Example 6, 2-((2-(2-Chloro-6-methylphenylsulfonyl)-1,2,3,4-tetrahydropyrrolo[1,2-a]pyrazin-1-yl)methoxy)-1-(4-(pyridin-4-yloxy)piperidin-1-yl)ethanone]	100	99.6
Cc1ccc(S(=O)(=O)N2CCn3cccc3C2CC(=O)NC2CCc3cc(CN4C5CCCC4CC5)ccc3C2)cc1 (stereo not shown) [Example 77, N-[6-(8-Azabicyclo[3.2.1]octan-8-yl-methyl)-1,2,3,4-tetrahydro-naphthalen-2-yl]-2-[2-(p-tolylsulfonyl)-1,2,3,4-tetrahydro-pyrrolo[1,2-a]pyrazin-1-yl]-acetamide]	103	99.2
O=C(CC1c2cccn2CCN1S(=O)(=O)c1cccc(C(F)(F)F)c1)NC1CCCc2cc(CN3CCOCC3)ccc21 (stereo not shown) [Example 53, N-[6-(Morpholin-4-yl-methyl)-1,2,3,4-tetrahydro-naphthalen-1-yl]-2-[2-[[3-(trifluoromethyl)phenyl]sulfonyl]-1,2,3,4-tetrahydro-pyrrolo[1,2-a]pyrazin-1-yl]-acetamide]	102	99

Second part, the compound after the results:

inhibition at 10 µM (B1R of the rat) [%]	inhibition at 10 µM (human B1R) [%]	SMILES
98.8	100	COc1ccc2cc(S(=O)(=O)N3CCn4cccc4C3CC(=O)NC3CCCc4cc(CN5CCN(C)CC5)ccc43)ccc2c1 (stereo not shown) [Example 117, 2-[2-[(6-Methoxy-naphthalen-2-yl)sulfonyl]-1,2,3,4-tetrahydro-pyrrolo[1,2-a]pyrazin-1-yl]-N-[6-[(4-methyl-piperazin-1-yl)-methyl]-1,2,3,4-tetrahydro-naphthalen-1-yl]-acetamide]
103	99.8	COc1ccc2cc(S(=O)(=O)N3CCn4cccc4C3CC(=O)NC3CCCc4cc(CNCc5ccccc5)ccc43)ccc2c1 (stereo not shown) [Example 100, N-[6-[(Benzylamino)-methyl]-1,2,3,4-tetrahydro-naphthalen-1-yl]-2-[2-[(6-methoxy-naphthalen-2-yl)sulfonyl]-1,2,3,4-tetrahydro-pyrrolo[1,2-a]pyrazin-1-yl]-acetamide]
90.7	62.8	O=C(CC1c2cccn2CCN1S(=O)(=O)c1cccc(C(F)(F)F)c1)NC1CCc2cc(CN3CCCc4ccccc43)ccc2C1 (stereo not shown) [Example 69, N-[6-(1,2,3,4-Tetrahydro-quinolin-1-yl-methyl)-1,2,3,4-tetrahydro-naphthalen-2-yl]-2-[2-[[3-(trifluoromethyl)phenyl]sulfonyl]-1,2,3,4-tetrahydro-pyrrolo[1,2-a]pyrazin-1-yl]-acetamide]
103	99.8	CNCc1ccc2c(c1)CCC(NC(=O)CC1c3cccn3CCN1S(=O)(=O)c1ccc(C)c(Cl)c1)C2 (stereo not shown) [Example 138, 2-[2-[(3-Chloro-4-methyl-phenyl)sulfonyl]-1,2,3,4-tetrahydro-pyrrolo[1,2-a]pyrazin-1-yl]-N-[6-(methylamino-methyl)-1,2,3,4-tetrahydro-naphthalen-2-yl]-acetamide]
102	99.8	Cc1ccc(S(=O)(=O)N2CCn3cccc3C2CC(=O)NC2CCc3cc(CN(C)C)ccc3C2)cc1Cl (stereo not shown) [Example 115, 2-[2-[(3-Chloro-4-methyl-phenyl)sulfonyl]-1,2,3,4-tetrahydro-pyrrolo[1,2-a]pyrazin-1-yl]-N-[6-(dimethylaminomethyl)-1,2,3,4-tetrahydro-naphthalen-2-yl]-acetamide]
98.4	99.3	Cc1ccc(S(=O)(=O)N2CCn3cccc3C2CC(=O)NC2CCCc3cc(CN(C)C)ccc32)cc1 (stereo not shown) [Example 107, N-[6-(Dimethylaminomethyl)-1,2,3,4-tetrahydro-naphthalen-1-yl]-2-[2-(p-tolylsulfonyl)-1,2,3,4-tetrahydro-pyrrolo[1,2-a]pyrazin-1-yl]-acetamide]
102	99.9	CC(C)(C)NCc1ccc2c(c1)CCC(NC(=O)CC1c3cccn3CCN1S(=O)(=O)c1cccc(C(F)(F)F)c1)C2 (stereo not shown) [Example 64, N-[6-[(tert-Butylamino)-methyl]-1,2,3,4-tetrahydro-naphthalen-2-yl]-2-[2-[[3-(trifluoromethyl)phenyl]sulfonyl]-1,2,3,4-tetrahydro-pyrrolo[1,2-a]pyrazin-1-yl]-acetamide]
99.3	57.9	Cc1ccc(S(=O)(=O)N2CCn3cccc3C2CC(=O)NC2CCc3cc(CN4CCCc5ccccc54)ccc3C2)cc1 (stereo not shown) [Example 79, 2-[2-(p-Tolylsulfonyl)-1,2,3,4-tetrahydro-pyrrolo[1,2-a]pyrazin-1-yl]-N-[6-(1,2,3,4-tetrahydro-quinolin-1-yl-methyl)-1,2,3,4-tetrahydro-naphthalen-2-yl]-acetamide]
99	99.9	Cc1ccc(S(=O)(=O)N2CCn3cccc3C2CC(=O)NC2CCCc3cc(CN4CCCC4)ccc32)cc1Cl (stereo not shown) [Example 91, 2-[2-[(3-Chloro-4-methyl-phenyl)sulfonyl]-1,2,3,4-tetrahydro-pyrrolo[1,2-a]pyrazin-1-yl]-N-[6-(pyrrolidin-1-yl-methyl)-1,2,3,4-tetrahydro-naphthalen-1-yl]-acetamide]
101	99.9	Cc1ccc(S(=O)(=O)N2CCn3cccc3C2CC(=O)NC2CCCc3cc(CNC(C)(C)C)ccc32)cc1 (stereo not shown) [Example 72, N-[6-[(tert-Butylamino)-methyl]-1,2,3,4-tetrahydro-naphthalen-1-yl]-2-[2-(p-tolylsulfonyl)-1,2,3,4-tetrahydro-pyrrolo[1,2-a]pyrazin-1-yl]-acetamide]
